From patent publication US20230392116A1, “METHOD FOR DIFFERENTIATING CORNEAL ENDOTHELIAL CELL-LIKE CELLS FROM PLURIPOTENT STEM CELLS” (StemSight Oy, priority 2020, published 2023)

Tested on: human pluripotent stem cells (hPSC)
Experiment: Differentiation of human pluripotent stem cells (hPSC) into corneal endothelial cell (CEC)-like cells
Assay type: cell-based
Conditions: for emergence of NCC markers: SB431542 and CHIR99021 as differentiation induction agents; for time at which NCC markers appeared: culture medium with about 10 μM SB431542 and about 4 μM CHIR99021 together
Protocol: Embryonic (hESC) and induced pluripotent stem cells (iPSC) were used to generate CECs. Briefly, hPSCs were seeded on Laminin 521 (Biolamina) coated CellBind 6/12 well-plates (Corning) in 10 000-60 000 cell/cm 2 cell density. The cells were cultured in Essential 8 Flex medium (Thermo Fisher) for 24h. On day 1, Essential 8 flex medium was replaced with an induction medium supplemented with 10 μM SB431542 (Stemcell), 4 μM CHIR99021 (Stemcell) and 10 μM retinoic acid (RA, Sigma-Aldrich). Base of the induction medium consisted of KO-DMEM, 15% Knock-out serum replacement, 2 mM GlutaMax-I, 0.1 mM 2-mercaptoethanol (all from Thermo Fisher), 1% Non-essential Amino Acids, 50 U/ml Penicillin/Streptomycin. […] After day 9, CEC-like cells were formed, and harvested for analyses.
The hPSC-derived CECs were analyzed by immunocytochemistry. Briefly, the cells were fixed with 1 or 4% paraformaldehyde (PFA, Sigma-Aldrich) for 15 minutes. Next, the cells were permeabilized for 10 minutes with 0.1% Triton X-100 (Sigma-Aldrich) followed by blocking with 3% bovine serum albumin (BSA) for 1 hour. Then the cells were first incubated with 1:400 zona occludens-1 (ZO-1; Thermo Fisher), 1:200 alpha 1 sodium potassium ATPase (Na+/K+-ATPase, Abcam) and 1:400 CD166 (BD Biosciences) primary antibodies overnight at 4° C. The cells were next treated with 1:800 Donkey anti-Rabbit IgG Secondary Antibody, Alexa Fluor 488 (Thermo Fisher) against ZO-1; 1:800 Donkey anti-Mouse IgG Secondary Antibody, Alexa Fluor 568 (Thermo Fisher) against Na+/K+-ATPase and CD166; and 1:800 Donkey anti-Goat IgG Secondary Antibody, Alexa Fluor 568 (Thermo Fisher) against OCT-3/4. […] The images of mounted cells were captured using a fluorescence microscope (Olympus IX51; Olympus, Tokyo, Japan) and prepared using image editing software (Adobe Photoshop CC 2018; Adobe Systems) […]
Total RNA was extracted from undifferentiated hPSCs (d0), and from 3 time points during the time of hCEC induction (d3, d6 and d9) with Rneasy Minikit Plus (Qiagen). RNA concentration of each sample was determined using NanoDrop-1000 spectrophotometer (NanoDrop Technologies). […] The resulting cDNA samples were analyzed with qPCR using sequence-specific TaqMan Gene Expression Assays (Thermo Fisher) for OCT4 (Hs00999632_g1), PITX2 (Hs01553179_m1), AQP1 (Hs01028916_m1), SLC4A4 (Hs00186798_m1), and FOXC1 (Hs00559473_s1). […] Results were analyzed with the 7300 System SDS Software (Applied Biosystems) and Microsoft Excel. Based on the cycle threshold (CT) values given by the software, the relative quantification of each gene was calculated by applying the […] (Livak and Schmittgen, 2001). Results were normalized to GAPDH (Hs99999905_m1), with the undifferentiated hPSCs as the calibrator to determine the relative quantities of gene expression in each sample.

SMILES | emergence of NCC markers | time at which NCC markers appeared [days]
Cc1c[nH]c(-c2cnc(NCCNc3ccc(C#N)cn3)nc2-c2ccc(Cl)cc2Cl)n1 [CHIR99021] | contributed to emergence of NCC markers | ~3
NC(=O)c1ccc(-c2nc(-c3ccc4c(c3)OCO4)c(-c3ccccn3)[nH]2)cc1 [SB431542, 4-[4-(1,3-Benzodioxol-5-yl)-5-(2-pyridinyl)-1H-imidazol-2-yl]-benzamide] | contributed to emergence of NCC markers | ~3
